Data: patent US11253497B2, “Use of derivatives of polyunsaturated fatty acids as medicaments” (Lipopharma Therapeutics, S.L., priority 2009, dated 2022)

Legend:
[1] = system: P19 cells; assay: NMDA-induced neuronal death in P19 cells; format: cell-based; conditions: NMDA alone 100% death, control without NMDA 0%; negative values = proliferation
[2] = Serum cholesterol, triglycerides and glucose in SHR rats (colorimetric); format: in vivo, rat; conditions: 200 mg/kg daily p.o., 28 days, untreated rats 100%
Outline: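 SHR rats dosed p.o. at 200 mg/kg daily for 28 days; serum cholesterol, triglycerides and glucose measured colorimetrically. Values given as percent of untreated control rats, set at 100%.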

[3] = system: Spontaneously Hypertensive Rats (SHR); assay: Blood pressure of SHR rats (cuff-tail method); format: in vivo, rat; conditions: 200 mg/kg day p.o., 30 days, before treatment 214 mmHg
Outline: (§1)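 SHR rats dosed orally at 200 mg/kg day for 30 days against water vehicle. At study end, blood pressure taken non-invasively by tail cuff and apoA-I assessed as gene expression by RT-PCR.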

[4] = system: apolipoprotein AI (apoA-I); assay: Levels of apoA-I in SHR rats (RT-PCR); format: in vivo, rat; conditions: 200 mg/kg day p.o., 30 days, before treatment 100%
Outline: as §1

[5] = system: Jurkat cells; assay: Human leukaemia (Jurkat cells); format: cell-based; conditions: 72 hours
Method: (§2) Overall, it may be seen that the series of compounds A and B are the best, so the effectiveness of these series against the development of leukaemia and liver cancer (Tables 9 and 10) was tested.

[6] = system: brain cancer cell (glioma) U118; assay: Brain cancer (glioma) U118 cell growth; format: cell-based; conditions: 72 hours of incubation
Outline: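 Human cells in RPMI 1640 with 10% FBS at 37 °C, 5% CO2, exposed to D-PUFAs or PUFAs, then counted. glioma U118 cells run under the same conditions; values are means of three independent experiments.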

[7] = system: heterotrimeric Gi1 protein; assay: Binding of heterotrimeric Gi1 protein to model membranes (centrifugation, immunoblotting); conditions: phosphatidylcholine:phosphatidylethanolamine (6:4) 2 mM phospholipid, 0.1 μM D-PUFA; control 100 ± 5; in % (unit assumed)
Text: The net result is a regulation of cell signalling leading to the reversal of various pathological processes, as shown later. […] The Control is a sample of model membranes in the absence of fatty acids.

[8] = system: 3T3 cells; assay: Percentage of total PUFAs in membranes of 3T3 cells treated with fatty acids (gas chromatography); format: cell-based; conditions: 100 μM, 48 hours, mean ± SEM of four measures, control 32.4 ± 2.1
Text: To perform these experiments, membranes were extracted and total fatty acids were obtained by hydrolysis in basic medium. Methanolic bases of these fatty acids were quantified by gas chromatography. The data shown are averages of four independent measures of PUFA's mass divided by the total fatty acids and expressed as a percentage. It is also shown is standard error of the mean.
The control corresponds to a culture without the presence of added natural or synthetic fatty acids. Cells in their natural form present PUFAs in their membranes, but the presence in the medium of the D-PUFA molecules of the invention increases these levels of PUFAs in the cell membrane.

[9] = system: α-synuclein; assay: Expression of α-synuclein in neuronal cultures (cells P19); format: cell-based; conditions: untreated cells 100%
[10] = system: lung cancer cells A549; assay: Growth of lung cancer cells A549 (IC50); format: cell-based, human; conditions: 72 hours of incubation
Outline: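 Human A549 lung cancer cells in RPMI 1640 with 10% FBS at 37 °C, 5% CO2, exposed to D-PUFAs or PUFAs, then counted. values are means of three independent experiments.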

[11] = system: HepG2 cells; assay: Liver cancer (HepG2 cells); format: cell-based; conditions: Homo sapiens, HepG2; 72 hours
Method: These charts show the antitumor efficacy of the compounds of this invention against the growth of breast cancer cells, brain (glioma), and lung cancer. […] The other experimental conditions are identical to those described in the preceding paragraph.
as §2

[12] = system: breast cancer cells MDA-MB-231; assay: Growth of breast cancer cells MDA-MB-231; format: cell-based; conditions: 72 hours of incubation
Outline: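 Human cancer cells in RPMI 1640 with 10% FBS at 37 °C, 5% CO2, exposed to D-PUFAs or PUFAs, then counted. Breast MDA-MB-231 cells run under the same conditions; values are means of three independent experiments.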

[13] = system: TNF-α; assay: Production of TNF-α in serum of LPS-injected C57BL6/J mice; format: in vivo; conditions: LPS 20 μg i.p. (100%), 200 mg/kg p.o.
Text: (§3) Cyclooxygenase (COX) is an enzyme that can bind to membranes, taking certain lipids from there and catalyze its conversion into molecules that can have inflammatory activity. The binding of this enzyme to membrane lipids is due in part to the membrane lipid structure. The increased activity of COX 1 and 2 isoforms has been associated with the etiopathology of a number of inflammatory diseases by […] arachidonic acid metabolism to produce pro-inflammatory lipid mediators. The D-PUFA compounds of the present invention produced a series of cellular signals that alter the metabolism of arachidonic acid and, as a result, they inhibit the activity and expression of COX in monocytes in culture (Table 14 and FIG. 5A). […] For this purpose, C57BL6/J mice were treated with the various derivatives (200 mg/kg, p.o.,) after inducing an inflammatory reaction in them by intraperitoneal injection of 20 μg of bacterial lipopolysaccharide (LPS).

[14] = Lamellar-to-hexagonal (HII) transition temperature in DEPE model membranes by Differential Scanning Calorimetry; format: physicochemical; conditions: for Transition temperature (lamellar to HII): DEPE (4 mM), 200 μM compound, series A, control 64.5
Outline: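 Lamellar-to-HII transition temperature of DEPE membranes measured by differential scanning calorimetry, with DEPE:fatty acid at 10:1 mol:mol. Control membranes contained no fatty acid.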

[15] = system: COX-2; assay: Expression of COX-2 in LPS-stimulated monocytes in culture; format: cell-based, human; conditions: positive control with LPS 100%
Text: FIG. 5A also presents a drawing showing the COX-2/COX-1 relationship as % of control (Y axis) for the following compounds (X-axis): OOA (2-hydroxy-oleic acid), OLA (182A1), OALA (183A1), OGLA (183A2), OARA (204A1), OEPA (205A1), ODHA (226A1). […] The reduction of this factor is directly related to the anti-inflammatory medication. The compounds are the same as in the left pane.
as §3
Inhibition of COX-2 expression in monocytes. Percentages of inhibition (compared to the positive control in the presence of LPS, 100%) of COX-2 protein levels (expression) by the various fatty acid derivatives.

[16] = system: B6 healthy mice; assay: Radial maze in control animals (B6 healthy mice); format: in vivo; conditions: 20 mg/kg daily po, 3 months
Method: To test the efficacy of the compounds of the present invention to induce neuroregeneration or inhibit neurodegeneration, an animal model of Alzheimer's disease was used. In this model mice develop neurodegeneration because they express a series of mutant proteins that lead to brain damage (Alzh mice). B6 mice were used as healthy animal controls. Both groups of animals were treated for a period of 3 months with vehicle (water) or with various D-PUFA (20 mg/kg, daily po) since they were an age of 3 months. To determine whether cognitive improvement occurred after treatment, animal behaviour was monitored in the radial maze. The animals are kept on restricted diet to have appetite. In a symmetrical 8-arm radial maze, visual marks were placed to facilitate the orientation of the animal and food (15 mg tablet) was put in four of the arms. The time each animal took to complete the exercise, and the number of errors, were measured using a camera attached to a computer system. In this sense, Alzheimer animals have values about 50% higher than healthy animals, both by the time it takes to perform the exercise and by the number of errors made (FIG. 4B). […] In this regard, the effectiveness of the compound 183B1, 205A1, 205B1, 226A1, 226 V1 was also tested, showing improvements in animals with Alzheimer's disease (times of 98, 92, 93, 86 and 89 seconds, respectively). On the other hand, it is also interesting that these same compounds (183B1, 205A1, 205B1, 226A1, 226B1 and 226V1) also produced reductions in the times taken to complete the experiment in control animals (B6 healthy mice) of 8s, 11s, 12s, 18s, 16s and 14s, respectively. Therefore, it may be concluded that these compounds have significant activity against neurodegeneration and in neuroregeneration.

Structure (SMILES) | Neuronal death (P19 cells) after treatment with NMDA [1] [%] | Cholesterol in serum (top number) [2] [%] | Glucose in serum (bottom number) [2] [%] | Triglycerides in serum (central number) [2] [%] | Blood pressure [3] [mm Hg] | Levels of apoA-I [4] [%] | IC50 ([5]; Homo sapiens, Jurkat) [µM] | IC50 [6] [µM] | G protein binding [7] | Percentage of total PUFA [8] [%] | Expression of α-synuclein [9] [%] | IC50 ([10]; Homo sapiens, A549) [µM] | IC50 [11] [µM] | IC50 ([12]; Homo sapiens, MDA-MB-231) [µM] | Production of TNF-α in serum [13] [%] | Transition temperature (lamellar to HII) [14] [°C] | COX-2 protein levels (expression), percentages of inhibition compared to positive control [15] [%] | also measured
CCCCCC=CCC=CCC=CCCCC(O)C(=O)O (stereo not shown) [183A2, 2-hydroxy-6,9,12-octadecatrienoic acid] | −70 | 79 | 82 | 78 | 189 | 311 | 184 | 372 | 17 ± 357 | 44.0 ± 2.6 | 40 | 192 | 380 | 347 | 71 | 50.1 | 23 | 
CCCCCC=CCC=CCC=CCC=CCCC(O)C(=O)O (stereo not shown) [204A1, 2-hydroxy-5,8,11,14-eicosatetraenoic acid] | −70 | 72 | 85 | 77 | 205 | 131 | 62 | 197 | 385 ± 22 | 45.5 ± 2.9 | 41 | 243 | 192 | 381 | 24 | 49.3 | 17 | 
CC/C=C\C/C=C\C/C=C\C/C=C\C/C=C\C/C=C\CC(O)C(=O)[O-].[Na+] (stereo not shown) [226B1] | −222 | 59 | 81 | 62 | 186 | 333 |  | 196 |  |  | 31 |  |  |  | 83 |  | 37 | Reduction in the time taken to complete the experiment [16]: 16 s; IC50 [5]: 175 µM; IC50 [10]: 198 µM; IC50 [12]: 195 µM; Temperature of lamellar-to-hexagonal transition ([14]; DEPE membranes, DEPE:D-PUFA 10:1 (mol:mol)): 45.1 °C
